From patent US10342804B2, “Steroid compound for use in the treatment of hepatic encephalopathy” (Umecrine Cognition AB, priority 2014, dated 2019)

Legend:
Format in all cases: in vivo, rat
hyperammonemic rats = assay: Spatial learning in the Radial maze, chronic hyperammonemia model (Example 2); settings: 20 mg/kg s.c. once daily, 6th-7th week of treatment
From the text: In this study an animal model of chronic hyperammonemia was used that reproduces many of the cognitive and motor alterations present in hepatic encephalopathy. Rats were fed with ammonia in their food and after two weeks with ammonia enriched food they developed symptoms of hepatic encephalopathy. The beam walking test was made during the 3rd and 4th week of 3α-ethynyl-3β-hydroxyandrostan-17-one oxime treatment while the Morris Water maze test was made during 4th-5th week of 3α-ethynyl-3β-hydroxyandrostan-17-one oxime treatment and the Radial maze test was made during 6th-7th week of 3α-ethynyl-3β-hydroxyandrostan-17-one oxime treatment.
The study was divided into two series with animals (male Wistar rats), each series included the following groups; Controls treated with vehicle (CV, n=8 per series), Controls treated with 3α-ethynyl-3β-hydroxyandrostan-17-one oxime (C+GAM, n=8 per series), hyperammonemic rats treated with vehicle (HAV, n=8 per series), hyperammonemic rats treated with 3α-ethynyl-3β-hydroxyandrostan-17-one oxime (HA+GAM, n=8 per series). […]
Training in the radial maze was composed of five blocks of three trials each, performed on ten consecutive days. […] The number of spatial reference errors and working memory were calculated and expressed as number of reference and working errors per block. […]

PCS rats = assay: Beam walking test, PCS rats (Example 8)
Protocol: Male Wistar rats (220-240 g) were anesthetized with isoflurane, and an end-to side porta-caval anastomosis was performed as described by Lee and Fisher (Surgery, 1961, 50, 668-672).
Rats that were subjected to the porta-caval anastomosis procedure are herein referred to as “PCS rats”.
3α-ethynyl-3β-hydroxyandrostan-17-one oxime in sesame oil was administered by subcutaneous injections in the back of the rats, once daily. Two different sets of experiments were performed in hyperammonemic rats. In the first set four groups of rats were used: 1) control rats injected with vehicle; 2) hyperammonemic rats injected with vehicle; 3) control rats injected with 20 mg/Kg of 3α-ethynyl-3β-hydroxyandrostan-17-one oxime and 4) hyperammonemic rats injected with 20 mg/Kg of 3α-ethynyl-3β-hydroxyandrostan-17-one oxime. […]
Motor coordination was tested as described by Gonzalez-Usano et al (ACS Chemical Neuroscience, 2014, 19, 5(2), 100-105) using a wooden beam (20 mm diameter). Rats were made to traverse a one-meter-long wooden beam located approximately one meter above the ground, and the number of foot faults (slips) was recorded by two observers. The rats were trained for the test by being made to traverse the beam up to five times before measurements were recorded. […]

blood ammonia = assay: Blood ammonia, hyperammonemic rats (Example 12); settings: 20 mg/Kg
Protocol: (§1) Male Wistar rats (140-160 g) were made hyperammonemic by feeding them a diet containing ammonium acetate (30% by weight) (Felipo et al, European Journal of Biochemistry, 1988, 176, 567-571).
(§2) 3α-ethynyl-3β-hydroxyandrostan-17-one oxime in sesame oil was administered by subcutaneous injections in the back of the rats, once daily. Two different sets of experiments were performed in hyperammonemic rats. In the first set four groups of rats were used: 1) control rats injected with vehicle; 2) hyperammonemic rats injected with vehicle; 3) control rats injected with 20 mg/Kg of 3α-ethynyl-3β-hydroxyandrostan-17-one oxime and 4) hyperammonemic rats injected with 20 mg/Kg of 3α-ethynyl-3β-hydroxyandrostan-17-one oxime.
Blood ammonia was measured using the kit II Ammonia Arkray test (PocketChem BA, Arkray) using 20 μL of fresh blood following manufacturer's specifications.

[1] = Exposure in plasma and brain tissue, hyperammonemic rats (Example 13); settings: for Total concentration in plasma: at the time for behavioral testing
Protocol: as §1, §2
In the second set of experiments five groups of rats were used: 1) control rats injected with vehicle; 2) hyperammonemiac rats injected with vehicle and 3-5) hyperammonemic rats injected with 3, 10 or 20 mg/Kg of 3α-ethynyl-3β-hydroxyandrostan-17-one oxime. In each experiment 6-8 rats per group were used.
At the end of the treatment period plasma was collected from the tail vein, and after sacrifice by decapitation brains were collected and immediately frozen on dry ice. For analysis of 3α-ethynyl-3β-hydroxyandrostan-17-one oxime exposure, brain tissue was homogenized with a 1:4 ratio of tissue: PBS (pH 7.4) and then extracted with a 2-fold volume of methanol:acetonitrile (1:1), while plasma was protein-precipitated with a 3-fold volume with acetonitrile. Analyses were performed by Waters ACQUITY UPLC+Waters XEVO-TQS triple quadrupole mass spectrometer (Admescope Oy, Oulu, Finland). For calculations of the amount of free 3α-ethynyl-3β-hydroxyandrostan-17-one oxime exposure in the brain the fraction unbound (Fb) in brain homogenates were determined by dialysis, Fub in HA=[…] and Fub in PCS=1.43% (Admescope Oy, Oulu, Finland).

In the case of `C#C[C@]1(O)CC[C@@]2(C)C(CC[C@@H]3[C@@H]2CC[C@]2(C)/C(=N\O)CC[C@@H]32)C1` (stereo partly drawn) [3α-ethynyl-3β-hydroxyandrostan-17-one oxime], the “Spatial learning/memory in the Radial maze (working errors)” value (hyperammonemic rats) was “completely restored”, the “Number of slips, beam walking test” value (PCS rats; 0.7 mg/kg s.c. once daily) was 0.75±0.10 slips and the “Number of slips, beam walking test” value (PCS rats; 2.5 mg/Kg s.c. once daily) was 0.8±0.1 slips. The Blood ammonia levels (blood ammonia) was 139 ± 14 µM, the “Unbound concentration in the brain tissue” value (shortened to “Unbound concentration”) ([1]; 3 mg/Kg s.c. once daily) was 6.1 ± 1.4 nmol/kg and the “Total concentration in plasma” value ([1]; 3 mg/Kg s.c. once daily) was 0.34 ± 0.03 µM. For the same compound, the “Unbound concentration” value ([1]; 10 mg/Kg s.c. once daily) was 11.6 ± 1.4 nmol/kg, the “Total concentration in plasma” value ([1]; 10 mg/Kg s.c. once daily) was 1.08 ± 0.11 µM and the “Unbound concentration” value ([1]; 20 mg/Kg s.c. once daily) was 23 ± 5 nmol/kg. The “Total concentration in plasma” value ([1]; 20 mg/Kg s.c. once daily) was 1.95 ± 0.61 µM.
